Here are results for 19 molecules from patent publication US9012489B2, “Phenyl-3-aza-bicyclo[3.1.0]hex-3-yl-methanones and the use thereof as medicament” (Boehringer Ingelheim International GmbH, priority 2011, dated 2015).

What is called IC50 is the concentration needed to halve the response being measured. Low readings indicate greater potency in that assay, high ones weaker potency in that assay.

SMILES strings stand for the structures.

The target in this experiment is T1, GlyT1 transporter (Homo sapiens, UniProt P48067).
T1 construct: endogenously expressing the GlyT1 transporter; host or cells: SK-N-MC human neuroblastoma cells
T1 sequence (P48067 1-706): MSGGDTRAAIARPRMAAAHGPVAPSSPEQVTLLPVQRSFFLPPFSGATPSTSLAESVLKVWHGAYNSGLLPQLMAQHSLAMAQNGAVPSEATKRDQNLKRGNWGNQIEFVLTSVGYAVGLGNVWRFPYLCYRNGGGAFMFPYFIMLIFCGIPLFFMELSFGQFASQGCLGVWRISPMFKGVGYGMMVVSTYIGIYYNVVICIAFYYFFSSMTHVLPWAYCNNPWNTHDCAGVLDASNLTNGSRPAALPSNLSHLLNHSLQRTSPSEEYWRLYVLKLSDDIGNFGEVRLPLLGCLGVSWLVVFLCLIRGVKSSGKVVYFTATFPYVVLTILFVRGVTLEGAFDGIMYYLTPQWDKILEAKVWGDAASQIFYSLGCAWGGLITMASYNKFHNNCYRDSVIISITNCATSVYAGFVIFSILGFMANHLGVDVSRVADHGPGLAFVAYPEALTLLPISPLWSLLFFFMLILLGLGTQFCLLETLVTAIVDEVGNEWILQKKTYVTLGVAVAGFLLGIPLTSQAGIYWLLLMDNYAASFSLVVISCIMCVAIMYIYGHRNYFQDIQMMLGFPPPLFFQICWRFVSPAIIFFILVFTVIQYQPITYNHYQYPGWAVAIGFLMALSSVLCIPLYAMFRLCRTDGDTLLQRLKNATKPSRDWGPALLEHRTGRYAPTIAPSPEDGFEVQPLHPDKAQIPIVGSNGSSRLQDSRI
As to the kind of experiment: GlyT1 assay: 3H-glycine uptake into SK-N-MC cells (Cytostar-T format). It counts as cell-based. The conditions noted are these: glycine uptake in human SK-N-MC cells endogenously expressing GlyT1; 500 nM glycine, 1% DMSO, signal recorded over 60 min. Summed up: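 Endogenous GlyT1 in human SK-N-MC cells, confluent after 16-18 h, in HBSS with 5 mM alanine. Compounds preincubated about 5-10 min, then 500 nM glycine (half ³H) added, 1% DMSO. Scintillation-proximity uptake recorded kinetically over 60 min; IC50 from linear-range slopes over 8 concentrations, nonspecific uptake defined with 10 μM RG-1678.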
`Cc1c(C23CC2CN(C(=O)c2cc(S(C)(=O)=O)ccc2O[C@H](C)C(F)(F)F)C3)noc1C(F)(F)F` (single isomer, unassigned) [Example 161] had an IC50 of 9 nM.
On to `C[C@@H](Oc1ccc(S(C)(=O)=O)cc1C(=O)N1CC2CC2(c2ncc(C(F)(F)F)o2)C1)C(F)(F)F` (mixture of isomers) [Example 128, [5-Methanesulfonyl-2-(2,2,2-trifluoro-1-methyl-ethoxy)-phenyl]-[1-(5-trifluoromethyl-oxazol-2-yl)-3-aza-bicyclo[3.1.0]hex-3-yl]-methanone], for which the IC50 is 6 nM.
`C[C@@H](Oc1ccc(S(C)(=O)=O)cc1C(=O)N1CC2CC2(c2nnc(C(F)(F)F)o2)C1)C(F)(F)F` (mixture of isomers) [Example 122, [5-Methanesulfonyl-2-(2,2,2-trifluoro-1-methyl-ethoxy)-phenyl]-[1-(5-trifluoromethyl-[1,3,4]oxadiazol-2-yl)-3-aza-bicyclo[3.1.0]hex-3-yl]-methanone]: half-maximal inhibition (IC50) was put at 21 nM.
The figure for `C[C@H](Oc1ccc(S(C)(=O)=O)cc1C(=O)N1CC2CC2(c2nnc(C(F)(F)F)o2)C1)C(F)(F)F` (single isomer, unassigned) [Example 127, [5-Methanesulfonyl-2-(2,2,2-trifluoro-1-methyl-ethoxy)-phenyl]-[1-(5-trifluoromethyl-[1,3,4]oxadiazol-2-yl)-3-aza-bicyclo[3.1.0]hex-3-yl]-methanone] is 2660 nM; for `C[C@@H](Oc1ccc(S(C)(=O)=O)cc1C(=O)N1CC2CC2(c2nc(C(F)(F)F)no2)C1)C(F)(F)F` (single isomer, unassigned) [Example 86, [5-Methanesulfonyl-2-(2,2,2-trifluoro-1-methyl-ethoxy)-phenyl]-[1-(3-trifluoromethyl-[1,2,4]oxadiazol-5-yl)-3-aza-bicyclo[3.1.0]hex-3-yl]-methanone] it is 20 nM.
As for `C[C@H](Oc1ccc(S(C)(=O)=O)cc1C(=O)N1CC2CC2(c2csc(C(F)(F)F)n2)C1)C(F)(F)F` (mixture of isomers) [Example 26, [5-Methanesulfonyl-2-(2,2,2-trifluoro-1-methyl-ethoxy)-phenyl]-[1-(2-trifluoromethyl-thiazol-4-yl)-3-aza-bicyclo[3.1.0]hex-3-yl]-methanone], the figure is 8 nM; as for `C[C@H](Oc1ccc(C#N)cc1C(=O)N1CC2CC2(c2noc(C(F)(F)F)n2)C1)C(F)(F)F` (single isomer, unassigned) [Example 90, 4-(2,2,2-Trifluoro-1-methyl-ethoxy)-3-[1-(5-trifluoromethyl-[1,2,4]oxadiazol-3-yl)-3-aza-bicyclo[3.1.0]hexane-3-carbonyl]-benzonitrile], 2250 nM.
The figure for `C[C@@H](Oc1ccc(S(C)(=O)=O)cc1C(=O)N1CC2CC2(c2csc(C(F)(F)F)n2)C1)C(F)(F)F` (mixture of isomers) [Example 29, [5-Methanesulfonyl-2-(2,2,2-trifluoro-1-methyl-ethoxy)-phenyl]-[1-(2-trifluoromethyl-thiazol-4-yl)-3-aza-bicyclo[3.1.0]hex-3-yl]-methanone] is 11 nM; for `C[C@H](Oc1ccc(S(C)(=O)=O)cc1C(=O)N1CC2CC2(c2nc(C3CC3)no2)C1)C(F)(F)F` (single isomer, unassigned) [Example 144, [1-(3-Cyclopropyl-[1,2,4]oxadiazol-5-yl)-3-aza-bicyclo[3.1.0]hex-3-yl]-[5-methanesulfonyl-2-(2,2,2-trifluoro-1-methyl-ethoxy)-phenyl]-methanone] it is 164 nM; for `CC(Oc1ccc(C#N)cc1C(=O)N1CC2CC2(c2noc(C(F)(F)F)n2)C1)C(F)(F)F` (stereo not shown) [Example 39, 4-(2,2,2-Trifluoro-1-methyl-ethoxy)-3-[1-(5-trifluoromethyl-[1,2,4]oxadiazol-3-yl)-3-aza-bicyclo[3.1.0]hexane-3-carbonyl]-benzonitrile] it is 143 nM.
`C[C@H](Oc1ccc(S(C)(=O)=O)cc1C(=O)N1CC2CC2(c2noc(C3CC(F)(F)C3)n2)C1)C(F)(F)F` (single isomer, unassigned) [Example 59] had an IC50 of 8 nM.
Take `C[C@H](Oc1ccc(S(C)(=O)=O)cc1C(=O)N1CC2CC2(c2cccc(C(F)(F)F)n2)C1)C(F)(F)F` (single isomer, unassigned) [Example 56, [5-Methanesulfonyl-2-(2,2,2-trifluoro-1-methyl-ethoxy)-phenyl]-[1-(6-trifluoromethyl-pyridin-2-yl)-3-aza-bicyclo[3.1.0]hex-3-yl]-methanone]: half-maximal inhibition (IC50) was put at 233 nM.
Take `C[C@H](Oc1ccc(S(C)(=O)=O)cc1C(=O)N1CC2(C)CC2(c2noc(C(F)(F)F)n2)C1)C(F)(F)F` (single isomer, unassigned) [Example 159, [5-Methanesulfonyl-2-(2,2,2-trifluoro-1-methyl-ethoxy)-phenyl]-[1-methyl-5-(5-trifluoromethyl-[1,2,4]oxadiazol-3-yl)-3-aza-bicyclo[3.1.0]hex-3-yl]-methanone]: inhibition was half-maximal at 953 nM (IC50).
The figure for `C[C@H](Oc1ccc(S(C)(=O)=O)cc1C(=O)N1CC2CC2(c2nnc(C3(C(F)(F)F)CC3)o2)C1)C(F)(F)F` (single isomer, unassigned) [Example 152, [5-Methanesulfonyl-2-(2,2,2-trifluoro-1-methyl-ethoxy)-phenyl]-{1-[5-(1-trifluoromethyl-cyclopropyl)-[1,3,4]oxadiazol-2-yl]-3-aza-bicyclo[3.1.0]hex-3-yl}-methanone] is 10 nM; for `CC(C)Oc1ccc(S(C)(=O)=O)cc1C(=O)N1CC2CC2(c2noc(C(F)(F)F)n2)C1` (racemic) [Example 96, (2-Isopropoxy-5-methanesulfonyl-phenyl)-[1-(5-trifluoromethyl-[1,2,4]oxadiazol-3-yl)-3-aza-bicyclo[3.1.0]hex-3-yl]-methanone] it is 27 nM.
As for `CS(=O)(=O)c1ccc(O[C@@H]2CCOC2)c(C(=O)N2CC3CC3(c3noc(C(F)(F)F)n3)C2)c1` (single isomer, unassigned) [Example 139, [5-Methanesulfonyl-2-(tetrahydro-furan-3-yloxy)-phenyl]-[1-(5-trifluoromethyl-[1,2,4]oxadiazol-3-yl)-3-aza-bicyclo[3.1.0]hex-3-yl]-methanone], the figure is 253 nM; as for `C[C@H](Oc1ccc(S(C)(=O)=O)cc1C(=O)N1CC2CC2(c2nocc2C(F)(F)F)C1)C(F)(F)F` (mixture of isomers) [Example 109, [5-Methanesulfonyl-2-(2,2,2-trifluoro-1-methyl-ethoxy)-phenyl]-[1-(4-trifluoromethyl-isoxazol-3-yl)-3-aza-bicyclo[3.1.0]hex-3-yl]-methanone], 45 nM; as for `C[C@H](Oc1ccc(S(C)(=O)=O)cc1C(=O)N1CC2CC2(c2noc(C3CC3(F)F)n2)C1)C(F)(F)F` (mixture of isomers) [Example 63, {1-[5-(2,2-Difluoro-cyclopropyl)-[1,2,4]oxadiazol-3-yl]-3-aza-bicyclo[3.1.0]hex-3-yl}-[5-methanesulfonyl-2-(2,2,2-trifluoro-1-methyl-ethoxy)-phenyl]-methanone], 10 nM.
In turn, `CCS(=O)(=O)c1ccc(O[C@@H](C)C(F)(F)F)c(C(=O)N2CC3CC3(c3nccc(C(F)(F)F)n3)C2)c1` (mixture of isomers) [Example 73, [5-Ethanesulfonyl-2-(2,2,2-trifluoro-1-methyl-ethoxy)-phenyl]-[1-(4-trifluoromethyl-pyrimidin-2-yl)-3-aza-bicyclo[3.1.0]hex-3-yl]-methanone] showed a half-inhibitory concentration (IC50) of 9 nM.
